The text below walks through data of patent US20190151289A1, “Identification of Small Molecule Inhibitors of Jumonji AT-Rich Interactive Domain 1A (JARID1A) Histone Demethylase” (YALE UNIVERSITY, priority 2016, published 2019).

In one assay the target is T1, full-length FLAG-KDM5A (Homo sapiens, UniProt P29375).
T1 construct: Sf21 insect cells were infected with baculovirus to express full-length FLAG-KDM5A; made in house; host or cells: Sf21 insect cells (baculovirus)
The experiment in a line: AlphaScreen KDM5A demethylation assay (bio-H3K4me3 peptide). It is filed as biochemical. Particulars: for hit in KDM5A inhibitor screen: compounds at 20 μM, hit threshold ~30% inhibition. The method, then:
(§1) Histone demethylase assays were performed using previously described methods (Sayegh et al., 2013, J. Biol. Chem. 9408-9417), with the exception of all enzyme reactions containing 125 μM α-KG. Enzymes were used at the following approximate concentrations in validation experiments, chosen based on their activity in AlphaScreen assays: 19 nM FLAG-KDM5A, 15 nM FLAG-KDM5B, 6 nM FLAG-KDM5C, 29 nM His-FLAG-KDM6A, and 16 nM FLAG-KDM6B. 24 nM FLAG-KDM5A was used for Km determination experiments. Reactions were carried out for 1 hour, or were stopped by addition of 30 mM EDTA every 5 minutes for determining enzyme kinetics. Km values were calculated using the Michaelis-Menten non-linear regression analysis on GraphPad Prism 6.0 software. The concentration of DMSO in demethylation reactions was 0.05%. For reactions with catalase, catalase (Sigma C30) or an equal volume of dilution buffer was added to the peptide-containing buffer before addition of the demethylase. The final concentration of catalase in the reactions was 0.01 mg/ml.
(§2) The AlphaScreen general IgG (protein A) detection kit from PerkinElmer Life Sciences was used as described previously (Sayegh et al., 2013, J. Biol. Chem. 9408-9417). The luminescence emission was recorded at 570 nm using the AlphaScreen optic module on a Pherastar (BMG Labtech) or Envision (PerkinElmer Life Sciences) microplate reader.
8,861 compounds from the ChemBridge MW-Set, ChemBridge DIVERSet, MicroSource Gen-Plus, MicroSource Pure Natural Products, NIH Clinical Collection, and Enzo Epigenetics libraries were screened for inhibition of FLAG-KDM5A demethylase activity. Compounds were dissolved in DMSO and added at 20 μM to 384-well white plates (Corning 3574) containing 64 nM bio-H3K4me3 peptide in demethylase buffer prior to addition of 13 nM FLAG-KDM5A. Hits were selected at a threshold of three standard deviations (˜30% inhibition). A counter-screen was performed with the hits to eliminate any non-specific compounds. For this, 20 μM compounds were added to 64 nM bio-H3K4me2 peptide in demethylase buffer with no enzyme. Any hits that interfered with the positive signal detection were eliminated. Dose-response curves were performed on selected hits using 0.1-11 μM of compound. Further validation of top hits was performed using 5 μM of each compound or a dose-response curve using 0.05-50 μM of the compound.
Fresh compounds were ordered to confirm identity. IC50 curves were generated for YUKA1 and YUKA2 using 0.05-50 μM compound in 1 hour reactions. IC50 values were calculated by log transformation and non-linear regression log (inhibitor) versus response (three parameters) using Graphpad Prism 6.0 software. Percent activity of KDM5A was calculated for each data point by subtracting the background (average H3K4me3 signal) and dividing by the average signal for the DMSO controls. α-KG competition tests were performed using 150 nM H3K4me3 peptide and 50 μM Fe(II).
AlphaScreen technology (Perkin Elmer) was utilized to perform a screen for small molecule inhibitors of KDM5A. The assay was comprised of two steps, a demethylation reaction followed by detection of the product. A biotinylated H3K4me3 peptide was used as substrate in the demethylation reaction with KDM5A in the presence or absence of small molecule inhibitors. The presence of peptide product (H3K4me1/2) was detected using a product-specific antibody and beads. For this, acceptor beads coated in protein A bound to the antibody, which recognized the peptide product. Donor beads coated in streptavidin bound biotin on the peptide substrate. […]
A general note: In Alpha technology, singlet oxygen from a donor bead excites a nearby acceptor bead.

Assay [1] deals with H3K4 methylation in HeLa cells. Put plainly: Western blot of global H3K4 methylation, HeLa. It counts as cell-based, human. Particulars: HeLa and MCF7 cell lines, western blot. The method, then:
Sf21 insect cells were cultured at 27° C. in Grace's medium (Gibco) with 10% fetal bovine serum (FBS) and 1% penicillin/streptomycin. HeLa cells were cultured in DMEM (Gibco) with 10% FBS and 1% penicillin/streptomycin. BT474, MCF7, MDA-MB-231, PC9 and ZR-75-1 cells were cultured in RPMI 1640 (Gibco) with 10% FBS and 1% penicillin/streptomycin. MCF10A cells were cultured as using previously described methods (Sayegh et al., 2013, J. Biol. Chem. 9408-9417). All human cells were cultured at 37° C. and 5% carbon dioxide. HeLa and MCF7 cell lines were authenticated using short tandem repeat profiling performed at the DNA Analysis Facility on Science Hill at Yale University. All other human cell lines used were within 10 passages after being obtained from the American Type Culture Collection.
Cells were lysed using previously described methods (Lin et al., 2011, Proc. Natl. Acad. Sci. U.S.A. 108:13379-13386). Histones were separated by centrifugation, resuspended in Laemmeli buffer, and sonicated. Protein concentration of cell lysates was measured by Bradford assay. Samples in Laemmeli buffer were boiled 10 minutes at 95° C. and loaded onto 7% (whole cell lysates) or 18% (histones) SDS-PAGE gels. Membranes were blocked in 4% non-fat milk in Tris-buffered saline with 0.05% Tween (TBS-T) and incubated with primary antibodies in the same buffer or 5% bovine serum albumin in TBS-T overnight at 4° C. Membranes were incubated with secondary anti-rabbit or anti-mouse antibodies for one hour at room temperature. Blots were visualized by Thermo Scientific Pierce ECL Western Blotting Substrate (32106) or EMD Millipore Immobilon Western Chemiluminescent HRP Substrate (WBKLS0100) on film. Signal was quantified using ImageJ software.
(In western blotting, separated proteins are transferred to a membrane and probed.)

In a further assay the target is T2, KDM5C (Homo sapiens, UniProt P41229).
T2 construct: FLAG; made in house
T2 sequence (P41229 whole entry): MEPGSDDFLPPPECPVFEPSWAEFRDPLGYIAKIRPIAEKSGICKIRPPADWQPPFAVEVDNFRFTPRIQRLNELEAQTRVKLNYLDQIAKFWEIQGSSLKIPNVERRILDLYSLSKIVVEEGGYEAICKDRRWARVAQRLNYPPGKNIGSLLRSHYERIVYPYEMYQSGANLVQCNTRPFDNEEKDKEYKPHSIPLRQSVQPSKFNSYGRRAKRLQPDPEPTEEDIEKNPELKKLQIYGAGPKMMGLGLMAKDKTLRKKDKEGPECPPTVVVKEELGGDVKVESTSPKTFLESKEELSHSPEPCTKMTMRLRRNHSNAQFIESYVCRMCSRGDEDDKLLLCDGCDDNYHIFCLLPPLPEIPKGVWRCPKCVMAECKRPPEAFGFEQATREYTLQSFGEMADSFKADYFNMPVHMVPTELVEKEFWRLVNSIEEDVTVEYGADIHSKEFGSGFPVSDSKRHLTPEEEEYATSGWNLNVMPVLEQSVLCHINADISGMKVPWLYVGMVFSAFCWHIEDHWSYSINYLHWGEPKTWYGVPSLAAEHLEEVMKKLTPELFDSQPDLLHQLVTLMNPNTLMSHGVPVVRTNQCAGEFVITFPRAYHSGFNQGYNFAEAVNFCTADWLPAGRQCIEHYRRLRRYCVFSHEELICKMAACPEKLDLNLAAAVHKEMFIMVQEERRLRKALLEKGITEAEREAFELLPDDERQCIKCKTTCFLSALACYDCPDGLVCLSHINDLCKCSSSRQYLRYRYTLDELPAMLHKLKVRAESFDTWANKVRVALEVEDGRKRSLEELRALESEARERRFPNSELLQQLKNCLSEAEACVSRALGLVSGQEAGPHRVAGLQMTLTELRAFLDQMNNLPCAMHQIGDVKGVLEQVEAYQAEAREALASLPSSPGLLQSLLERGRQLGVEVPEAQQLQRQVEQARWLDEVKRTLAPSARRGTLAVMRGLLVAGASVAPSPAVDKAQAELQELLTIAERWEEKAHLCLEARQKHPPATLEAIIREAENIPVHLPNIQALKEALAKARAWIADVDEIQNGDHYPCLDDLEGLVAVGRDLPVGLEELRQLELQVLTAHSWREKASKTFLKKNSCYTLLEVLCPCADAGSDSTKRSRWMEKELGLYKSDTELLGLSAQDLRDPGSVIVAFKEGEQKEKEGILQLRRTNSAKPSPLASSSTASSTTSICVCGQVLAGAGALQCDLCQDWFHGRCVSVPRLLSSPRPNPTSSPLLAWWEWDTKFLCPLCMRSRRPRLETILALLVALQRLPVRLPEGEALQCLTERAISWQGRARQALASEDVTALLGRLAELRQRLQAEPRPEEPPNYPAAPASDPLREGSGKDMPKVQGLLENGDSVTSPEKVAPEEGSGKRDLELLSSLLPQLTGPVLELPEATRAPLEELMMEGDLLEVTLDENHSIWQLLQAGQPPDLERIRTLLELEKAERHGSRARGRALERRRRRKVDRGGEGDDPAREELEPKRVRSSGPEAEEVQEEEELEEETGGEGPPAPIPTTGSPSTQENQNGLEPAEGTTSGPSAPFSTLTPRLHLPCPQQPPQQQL
The experiment in a line: AlphaScreen KDM5C demethylation assay. It counts as biochemical. The method, then: as §1, §2

The mark [2] stands for this setting: inhibitors found by high throughput screening, read-out: KDM5A IC50.

SMILES strings stand for the structures. Where two headings read alike, the source gives them in different places.

T1 sequence (P29375 whole entry): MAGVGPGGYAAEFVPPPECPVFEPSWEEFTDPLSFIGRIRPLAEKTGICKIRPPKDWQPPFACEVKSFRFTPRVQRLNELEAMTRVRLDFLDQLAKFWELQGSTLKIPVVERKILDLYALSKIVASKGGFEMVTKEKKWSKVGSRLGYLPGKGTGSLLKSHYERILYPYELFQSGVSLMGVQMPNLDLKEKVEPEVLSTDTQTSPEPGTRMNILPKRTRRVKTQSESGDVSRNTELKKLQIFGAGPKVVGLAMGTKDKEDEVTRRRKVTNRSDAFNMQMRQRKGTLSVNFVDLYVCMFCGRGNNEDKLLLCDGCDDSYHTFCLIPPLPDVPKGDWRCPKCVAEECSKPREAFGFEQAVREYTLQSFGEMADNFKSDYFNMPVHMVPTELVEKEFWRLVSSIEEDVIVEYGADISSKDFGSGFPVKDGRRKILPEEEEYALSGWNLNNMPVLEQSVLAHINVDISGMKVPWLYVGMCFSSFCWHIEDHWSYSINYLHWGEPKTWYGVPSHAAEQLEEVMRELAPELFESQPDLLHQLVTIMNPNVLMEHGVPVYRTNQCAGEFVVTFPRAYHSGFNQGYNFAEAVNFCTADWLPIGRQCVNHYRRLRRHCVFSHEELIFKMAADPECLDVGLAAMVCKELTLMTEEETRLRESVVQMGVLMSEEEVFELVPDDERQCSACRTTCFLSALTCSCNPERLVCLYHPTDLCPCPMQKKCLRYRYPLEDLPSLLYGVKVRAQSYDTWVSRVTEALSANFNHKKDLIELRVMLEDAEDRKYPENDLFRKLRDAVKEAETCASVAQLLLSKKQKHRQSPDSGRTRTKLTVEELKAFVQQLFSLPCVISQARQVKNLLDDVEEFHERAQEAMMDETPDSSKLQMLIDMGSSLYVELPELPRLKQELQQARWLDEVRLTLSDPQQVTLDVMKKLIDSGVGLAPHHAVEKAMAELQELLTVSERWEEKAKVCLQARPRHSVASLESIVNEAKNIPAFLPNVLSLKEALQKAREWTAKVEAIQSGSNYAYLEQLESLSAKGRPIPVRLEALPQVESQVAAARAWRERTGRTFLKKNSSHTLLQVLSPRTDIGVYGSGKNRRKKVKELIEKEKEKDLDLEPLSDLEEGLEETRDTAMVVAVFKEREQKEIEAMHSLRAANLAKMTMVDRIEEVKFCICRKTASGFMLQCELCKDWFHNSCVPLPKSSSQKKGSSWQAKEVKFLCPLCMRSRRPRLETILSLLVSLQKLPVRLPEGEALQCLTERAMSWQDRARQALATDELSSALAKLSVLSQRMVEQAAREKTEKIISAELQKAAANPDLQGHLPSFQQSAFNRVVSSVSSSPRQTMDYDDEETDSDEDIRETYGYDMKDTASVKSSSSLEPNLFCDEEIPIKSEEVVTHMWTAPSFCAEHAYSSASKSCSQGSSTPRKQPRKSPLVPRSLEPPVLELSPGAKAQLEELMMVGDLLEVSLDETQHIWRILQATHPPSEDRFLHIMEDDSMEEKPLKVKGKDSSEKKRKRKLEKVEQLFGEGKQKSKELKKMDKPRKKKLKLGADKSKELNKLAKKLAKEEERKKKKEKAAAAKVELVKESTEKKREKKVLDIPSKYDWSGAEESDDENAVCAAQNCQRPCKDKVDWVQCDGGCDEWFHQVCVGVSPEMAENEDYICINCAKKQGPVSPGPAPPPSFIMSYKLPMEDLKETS

Turning to `N[C@@H](Cc1ccc(O)c(O)c1)C(=O)O` [levodopa, reference compound], the “hit in KDM5A inhibitor screen” value at full-length FLAG-KDM5A is recorded as “among the active hits in the screen”.
A word on the IC50: it is the point on the concentration scale where inhibition reaches its midpoint. As for `Cc1cccc(-n2c(C)nnc2S)c1` [YU128402, 5-methyl-4-(m-tolyl)-4H-1,2,4-triazole-3-thiol], the IC50 on full-length FLAG-KDM5A (setting [2]) was determined as 0.079 µM.
In the case of `Cc1ccc(-n2sc3ccccc3c2=O)cc1` [PBIT, 2-4(4-methylphenyl)-1,2-benzisothiazol-3(2H)-one, reference compound], the “hit in KDM5A inhibitor screen” value on full-length FLAG-KDM5A is recorded as “among the active hits in the screen”.
Regarding `C=CCn1c(S)nnc1CNC(=O)c1cccc(C)c1` [YUKA2, N-[(4-allyl-5-mercapto-4H-1,2,4-triazol-3-yl)methyl]-3-methylbenzamide], in assay [1], the “cell activity by global H3K4 methylation changes” value is “but not YUKA2, was cell-active”. For the same molecule, the “mode of KDM5A inhibition with respect to Fe(II)” value at full-length FLAG-KDM5A is listed as “uncompetitive with respect to Fe(II)”. Further, the “KDM5A enzyme inhibition at low Fe(II)” value on full-length FLAG-KDM5A (5 μM Fe(II)) was “too weak to generate robust IC50 curves”. For the same molecule, the “effect of catalase on inhibitory potency against KDM5A” value at full-length FLAG-KDM5A (0.01 mg/ml catalase) is recorded as “did not affect the inhibitory potency”. Also, the IC50 stood at 1.32 µM at full-length FLAG-KDM5A (0.05-50 μM compound, 1 hour reactions, read-out: average in vitro IC50 against KDM5A) and 2.66 µM at full-length FLAG-KDM5A (setting [2]). The “change of KDM5A IC50 with α-KG concentration” value at full-length FLAG-KDM5A (16-fold range of α-KG, 150 nM H3K4me3 peptide, 50 μM Fe(II)) was “did not change significantly”. Further, the “fold less active against KDM5C (vs KDM5A)” value on KDM5C is approximately 5 fold.
On to `COc1cccc(Cc2nnc(S)n2Cc2ccco2)c1` [YU017176, 4-(furan-2-ylmethyl)-5-(3-methoxybenzyl)-4H-1,2,4-triazole-3-thiol], for which the IC50 on full-length FLAG-KDM5A (setting [2]) was 1.76 µM.
For the molecule `O=C(O)/C=C/c1ccc(O)c(O)c1` [caffeic acid, reference compound], on full-length FLAG-KDM5A, the “hit in KDM5A inhibitor screen” value was “among the active hits in the screen”.
`CCCCSCCc1nnc(S)n1-c1ccccc1` [YU149596, 5-(2-(butylthio)ethyl)-4-phenyl-4H-1,2,4-triazole-3-thiol]: the IC50 on full-length FLAG-KDM5A (setting [2]) amounted to 0.169 µM.
Same read-out and setting: next, `COc1cccc(Cc2nnc(S)n2-c2ccc(Cl)cc2)c1` [YU017175, 4-(4-chlorophenyl)-5-(3-methoxybenzyl)-4H-1,2,4-triazole-3-thiol]: 0.057 µM.
For the molecule `C[C@@](Cc1ccc(O)c(O)c1)(NN)C(=O)O` [carbidopa, reference compound], on full-length FLAG-KDM5A, the “hit in KDM5A inhibitor screen” value is reported as “among the active hits in the screen”.
`CCn1c(S)nnc1CNC(=O)c1cccc(C)c1` [YU126648, N-((4-ethyl-5-mercapto-4H-1,2,4-triazol-3-yl)methyl)-3-methylbenzamide]: the IC50 on full-length FLAG-KDM5A (setting [2]) is 0.159 µM.
The same measure, in the same setting: then `C=CCn1c(S)nnc1-c1cccnc1` [YU125526, 4-allyl-5-(pyridin-3-yl)-4H-1,2,4-triazole-3-thiol], with 0.197 µM.
Consider `O=C(O)c1ccnc(C(=O)O)c1` [2,4-PDCA, 2,4-pyridinedicarboxylic acid, reference compound], for which the “hit in KDM5A inhibitor screen” value on full-length FLAG-KDM5A is listed as “among the active hits in the screen”.
